Source: PubChem BioAssay AID330 (DTP/NCI, 2004)
Values joined by “and” are separate entries in the source; they are usually repeats but may differ in a detail not shown here. Equal entries are not always repeated. Inconclusive results and toxic doses are left out. The calls were made as follows: active = survival T/C of 150% or more; inactive = T/C below 125% in these data.

Test system: P388 leukemia ip, CD2F1 mice, survival T/C
Experiment: NCI In Vivo Anticancer Drug Screen. Data for tumor model P388 Leukemia (intraperitoneal) in CD2F1 (CDF1) mice
Settings: endpoint: median survival time, higher = longer survival
Summary of the method: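 Mice carrying the transplanted tumor received test compound or vehicle. Survival was recorded in each group, and the value is the treated-group measurement divided by that of the vehicle-treated control group.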

[1] = dose: 100.0 mg/kg/injection, schedule: Q01DX001 (ip), vehicle: saline with Tween-80
[2] = dose: 200.0 mg/kg/injection, schedule: Q01DX001 (ip), vehicle: saline with Tween-80
[3] = dose: 400.0 mg/kg/injection, schedule: Q01DX001 (ip), vehicle: saline with Tween-80
[4] = dose: 50.0 mg/kg/injection, schedule: Q01DX009 (ip), vehicle: Klucel (hydroxypropylcellulose) (HPC)
[5] = dose: 7.5 mg/kg/injection, schedule: Q01DX005 (ip), vehicle: Klucel (hydroxypropylcellulose) (HPC)
[6] = dose: 15.0 mg/kg/injection, schedule: Q01DX005 (ip), vehicle: Klucel (hydroxypropylcellulose) (HPC)
[7] = dose: 50.0 mg/kg/injection, schedule: Q01DX005 (ip), vehicle: saline with Tween-80
[8] = dose: 100.0 mg/kg/injection, schedule: Q01DX005 (ip), vehicle: saline with Tween-80
[9] = dose: 200.0 mg/kg/injection, schedule: Q01DX005 (ip), vehicle: saline with Tween-80
[10] = dose: 60.0 mg/kg/injection, schedule: Q01DX005 (ip), vehicle: saline with Tween-80
[11] = dose: 120.0 mg/kg/injection, schedule: Q01DX005 (ip), vehicle: saline with Tween-80
[12] = dose: 240.0 mg/kg/injection, schedule: Q01DX005 (ip), vehicle: saline with Tween-80
[13] = dose: 200.0 mg/kg/injection, schedule: Q01DX009 (ip), vehicle: saline with Tween-80
[14] = dose: 100.0 mg/kg/injection, schedule: Q04DX002 (ip), vehicle: saline with Tween-80
[15] = dose: 200.0 mg/kg/injection, schedule: Q04DX002 (ip), vehicle: saline with Tween-80

Measured: T/C

C=C1CCCC2CCC[N+](C)(CC(=O)OCC)C12 (centres undefined)
inactive: dose: 50.0 mg/kg/injection, schedule: Q01DX005 (ip), vehicle: saline 93 % of control

CC1=C(C(=O)N2Cc3cc4ccccc4nc3C2)COC1=O
inactive: dose: 50.0 mg/kg/injection, schedule: Q01DX001 (ip), vehicle: saline with Tween-80 99 % of control | [1] 90 % of control | [2] 95 % of control | [3] 90 % of control

COc1cc(/C=N/NC(N)=O)cc(OC)c1O
inactive: [4] 105 % of control | dose: 100.0 mg/kg/injection, schedule: Q01DX009 (ip), vehicle: Klucel (hydroxypropylcellulose) (HPC) 99 % of control | dose: 200.0 mg/kg/injection, schedule: Q01DX009 (ip), vehicle: Klucel (hydroxypropylcellulose) (HPC) 98 % of control

COc1ccc(/C=N/Nc2cc(C)nc3cc4c(cc23)OCO4)c2ccccc12
inactive: dose: 1.56 mg/kg/injection, schedule: Q01DX005 (ip), vehicle: Klucel (hydroxypropylcellulose) (HPC) 109 % of control | dose: 3.12 mg/kg/injection, schedule: Q01DX005 (ip), vehicle: Klucel (hydroxypropylcellulose) (HPC) 100 % of control | dose: 6.25 mg/kg/injection, schedule: Q01DX005 (ip), vehicle: Klucel (hydroxypropylcellulose) (HPC) 100 % of control and 102 % of control | dose: 12.5 mg/kg/injection, schedule: Q01DX005 (ip), vehicle: Klucel (hydroxypropylcellulose) (HPC) 110 % of control

CCOc1c(N=Nc2ccccc2O)c(C)nn1C(N)=S
inactive: dose: 3.75 mg/kg/injection, schedule: Q01DX005 (ip), vehicle: Klucel (hydroxypropylcellulose) (HPC) 103 % of control | [5] 102 % of control | [6] 104 % of control and 95 % of control

O=C(c1ccccc1)c1cccc(C(=O)c2ccccc2)c1
inactive: dose: 25.0 mg/kg/injection, schedule: Q01DX005 (ip), vehicle: saline with Tween-80 99 % of control | [7] 104 % of control | [8] 95 % of control | [9] 105 % of control

O=C(c1ccccc1)N1OCCCc2ccccc21
inactive: [10] 104 % of control | [11] 96 % of control | [12] 91 % of control

CCOC(=O)NC(NC(=O)OCC)c1ccc(C(NC(=O)OCC)NC(=O)OCC)cc1
inactive: dose: 100.0 mg/kg/injection, schedule: Q04DX003 (ip), vehicle: saline 99 % of control | dose: 200.0 mg/kg/injection, schedule: Q04DX003 (ip), vehicle: saline 90 % of control | dose: 400.0 mg/kg/injection, schedule: Q04DX003 (ip), vehicle: saline 89 % of control

Cc1c(Cc2ccccc2)c(N2CCOCC2)n2c(nc3ccccc32)c1C#N
inactive: [10] 91 % of control | [11] 88 % of control | [12] 91 % of control

CCOS(=O)c1ccc(C)cc1 (centres undefined)
inactive: dose: 12.5 mg/kg/injection, schedule: Q01DX009 (ip), vehicle: Klucel (hydroxypropylcellulose) (HPC) 98 % of control | dose: 25.0 mg/kg/injection, schedule: Q01DX009 (ip), vehicle: Klucel (hydroxypropylcellulose) (HPC) 98 % of control | [4] 105 % of control and 110 % of control

COc1ccc(NCCOc2ccccc2Br)cc1
inactive: dose: 100.0 mg/kg/injection, schedule: Q04DX003 (ip), vehicle: other 90 % of control | dose: 132.0 mg/kg/injection, schedule: Q01DX009 (ip), vehicle: other 123 % of control | dose: 200.0 mg/kg/injection, schedule: Q01DX009 (ip), vehicle: other 104 % of control | dose: 200.0 mg/kg/injection, schedule: Q04DX003 (ip), vehicle: other 90 % of control | dose: 300.0 mg/kg/injection, schedule: Q01DX009 (ip), vehicle: other 100 % of control | dose: 400.0 mg/kg/injection, schedule: Q04DX003 (ip), vehicle: other 95 % of control

CC(=O)/C(=C\c1ccc([N+](=O)[O-])o1)C(=O)CCN(C)C
inactive: [5] 97 % of control | [6] 107 % of control

O=C1CSC(=S)N1c1ccco1
inactive: dose: 100.0 mg/kg/injection, schedule: Q01DX009 (ip), vehicle: saline with Tween-80 100 % of control | [13] 100 % of control

O=C(/C=C/c1ccccc1)/C=C/c1ccccc1 (tested in a mixture with another compound)
inactive: [10] 98 % of control | [11] 91 % of control | [12] 91 % of control

CC(=O)OCC1OC(NC(=S)NCC(=O)c2ccccc2)C(OC(C)=O)C(OC(C)=O)C1OC(C)=O (centres undefined)
inactive: [7] 99 % of control | [8] 99 % of control | [9] 98 % of control

Fc1ccnc(F)n1
inactive: dose: 25.0 mg/kg/injection, schedule: Q04DX003 (ip), vehicle: water 100 % of control | dose: 50.0 mg/kg/injection, schedule: Q04DX003 (ip), vehicle: water 104 % of control

Cc1cn(CC2C=CC(CS[As](C)C)O2)c(=O)[nH]c1=O (centres undefined)
inactive: dose: 12.5 mg/kg/injection, schedule: Q01DX009 (ip), vehicle: distilled water + Tween-80 99 % of control | dose: 25.0 mg/kg/injection, schedule: Q01DX009 (ip), vehicle: distilled water + Tween-80 108 % of control | dose: 50.0 mg/kg/injection, schedule: Q01DX009 (ip), vehicle: distilled water + Tween-80 101 % of control | dose: 100.0 mg/kg/injection, schedule: Q01DX009 (ip), vehicle: distilled water + Tween-80 119 % of control

COc1ccc(C2CC(=O)N(c3ccncc3)C(=O)C2)cc1
inactive: dose: 50.0 mg/kg/injection, schedule: Q04DX002 (ip), vehicle: saline with Tween-80 115 % of control | [14] 95 % of control | [15] 90 % of control

CCN(CC)CCn1cnc2c(=S)[nH]c(=S)[nH]c21
inactive: [1] 95 % of control | [2] 97 % of control | [3] 97 % of control

Cc1ccc(S(=O)(=O)N/N=C/c2c(Cl)[nH]c3cc(C)c(O)cc23)cc1
inactive: dose: 25.0 mg/kg/injection, schedule: Q01DX001 (ip), vehicle: Klucel (hydroxypropylcellulose) (HPC) 100 % of control | dose: 50.0 mg/kg/injection, schedule: Q01DX001 (ip), vehicle: Klucel (hydroxypropylcellulose) (HPC) 105 % of control | dose: 100.0 mg/kg/injection, schedule: Q01DX001 (ip), vehicle: Klucel (hydroxypropylcellulose) (HPC) 103 % of control and 91 % of control | dose: 200.0 mg/kg/injection, schedule: Q01DX001 (ip), vehicle: Klucel (hydroxypropylcellulose) (HPC) 103 % of control | dose: 400.0 mg/kg/injection, schedule: Q01DX001 (ip), vehicle: Klucel (hydroxypropylcellulose) (HPC) 91 % of control

CS(=O)(=O)CCS(C)(=O)=O
inactive: dose: 50.0 mg/kg/injection, schedule: Q01DX009 (ip), vehicle: saline with Tween-80 102 % of control | [13] 89 % of control

O=C1C(Cl)=C(Nc2ccc3c(c2NC2=C(Cl)C(=O)c4ccccc4C2=O)C(=O)c2ccccc2C3=O)C(=O)c2ccccc21
inactive: dose: 50.0 mg/kg/injection, schedule: Q01DX005 (ip), vehicle: Klucel (hydroxypropylcellulose) (HPC) 97 % of control | dose: 100.0 mg/kg/injection, schedule: Q01DX005 (ip), vehicle: Klucel (hydroxypropylcellulose) (HPC) 99 % of control

Cn1c(CCC(=O)O)c(CC(=O)O)c2ccccc21
inactive: [14] 99 % of control | [15] 97 % of control | dose: 400.0 mg/kg/injection, schedule: Q04DX002 (ip), vehicle: saline with Tween-80 108 % of control

CC(=O)Nc1ccc(-c2csc(Nc3ccnc4cc(Cl)ccc34)n2)cc1
inactive: [7] 93 % of control and 95 % of control | [8] 92 % of control | [9] 90 % of control and 92 % of control
